Values quoted from earlier work, collected in publication PMC6381106 (Scientific Reports, 2019).

System: TLR4
Conditions: literature; ref [62]–[65]; cited from earlier work
Excerpt: Multiple anti-inflammatory immunomodulatory therapies have been developed to ameliorate proinflammation following bacterial infection. […] Therefore, novel therapeutic approaches that decrease inflammatory responses should be developed, and researchers should expand the focus beyond agents that only treat the initial infe ...

Question: With `CCOC(=O)C1=CCCC[C@H]1S(=O)(=O)Nc1ccc(F)cc1Cl` [TAK-242] as the compound, how does the “outcome in clinical trials (TLR4 inhibitor; in words)” value read?
Answer: unsuccessful in clinical trials
